“And” between values parts separate entries of the source, which are not always exact repeats. Equal values may be shown once. “Also recorded” adds a separate entry of the source. Marks after values point to notes of the source that are not given here.
Assays:
EphrinB2-EphB2 [1] = biological target: T1, EphrinB2-EphB2 (Homo sapiens, UniProt P29323); assay: Octet tetramerization inhibition, immobilized human EphrinB2 binding to 50 nM soluble human EphB2
T1 construct: soluble human EphB1-His, EphB2-His, and EphB4-His ectodomains; commercially available human EphrinB1-Fc (EB1), EphrinB2-Fc (EB2), and EphrinB3-Fc (EB3) ectodomain proteins; purchased
T1 sequence (P29323 19-543 limits assumed): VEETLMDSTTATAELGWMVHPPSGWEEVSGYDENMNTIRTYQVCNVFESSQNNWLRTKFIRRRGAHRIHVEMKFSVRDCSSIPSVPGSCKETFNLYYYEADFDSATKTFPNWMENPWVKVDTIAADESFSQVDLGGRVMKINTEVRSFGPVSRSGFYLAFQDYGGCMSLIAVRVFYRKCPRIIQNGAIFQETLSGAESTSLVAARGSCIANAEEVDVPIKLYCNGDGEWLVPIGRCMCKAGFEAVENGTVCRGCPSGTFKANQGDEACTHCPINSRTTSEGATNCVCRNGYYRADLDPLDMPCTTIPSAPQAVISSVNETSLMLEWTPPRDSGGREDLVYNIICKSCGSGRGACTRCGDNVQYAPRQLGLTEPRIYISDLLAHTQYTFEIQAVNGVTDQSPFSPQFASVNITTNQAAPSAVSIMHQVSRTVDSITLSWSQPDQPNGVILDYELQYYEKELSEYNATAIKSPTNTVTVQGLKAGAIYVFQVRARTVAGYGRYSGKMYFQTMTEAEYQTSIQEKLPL

EphrinB2-EphB4 = biological target: T2, EphrinB2-EphB4 (Homo sapiens, UniProt P54760); assay: Octet 80 sec association/500 sec dissociation, immobilized human EphrinB2-Fc binding to soluble human EphB4-His; conditions: for selectivity among EphrinB2-EphB1/B2/B4: 3.2 μM
T2 construct: soluble human EphB1-His, EphB2-His, and EphB4-His ectodomains; commercially available human EphrinB1-Fc (EB1), EphrinB2-Fc (EB2), and EphrinB3-Fc (EB3) ectodomain proteins; purchased
T2 sequence (P54760 16-539 limits assumed): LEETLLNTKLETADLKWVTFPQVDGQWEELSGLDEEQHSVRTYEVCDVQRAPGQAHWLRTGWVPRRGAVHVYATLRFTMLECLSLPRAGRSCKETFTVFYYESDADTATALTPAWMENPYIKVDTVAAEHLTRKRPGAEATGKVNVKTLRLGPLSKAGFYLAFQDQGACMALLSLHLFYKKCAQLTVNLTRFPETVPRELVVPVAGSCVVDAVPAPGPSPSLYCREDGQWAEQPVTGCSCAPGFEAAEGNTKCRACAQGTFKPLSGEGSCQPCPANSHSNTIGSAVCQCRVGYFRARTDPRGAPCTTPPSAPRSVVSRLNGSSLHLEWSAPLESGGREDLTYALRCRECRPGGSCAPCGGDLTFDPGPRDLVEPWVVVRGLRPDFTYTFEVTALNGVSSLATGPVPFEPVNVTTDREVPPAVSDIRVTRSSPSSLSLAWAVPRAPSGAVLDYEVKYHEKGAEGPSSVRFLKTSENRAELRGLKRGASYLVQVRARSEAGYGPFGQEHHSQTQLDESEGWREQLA
Experimental: (§1) In another experiment, whether certain A20 analogs might have specificity for different Eph receptors was tested. An Octet RED384 system was used to obtain biophysical ON-OFF binding data (association-dissociation) for the three different human EphrinB2-EphB1, EphrinB2-EphB2, and EphrinB2-EphB4 protein-protein interactions and to assess the effect of A20 chemicals on the binding kinetics.
(§2) FIGS. 72A-72C show three example Octet sensorgram response traces for the immobilized human EphrinB2 ectodomain protein binding to soluble forms of the human EphB1, EphB2, and EphB4 ectodomain proteins, in the absence or presence of an A20 chemical (buffer conditions are always PBSTD:PBS with 0.05% Tween-20, 1% DMSO, and +/− indicated chemical). After loading EphrinB2-Fc protein to Octet AHC biosensors, washing, and obtaining stable baseline measurements in the appropriate PBSTD (either with or without indicated chemical), the sensors are placed in its buffer that also contains the indicated soluble EphB protein for the association step (0-80″), and then returned to its buffer for the dissociation step (81″-580″). In each figure (FIGS. 72A-72C), a sensorgram run using 10 μM of the 2×HCl salt form of A20-I is compared to the no compound control run to exemplify the maximum level of reduced response signal typically obtained with a potent A20 chemical.
(§3) Because the response levels during the dissociation step plateau for the EphrinB2-EphB2 and EphrinB2-EphB1 interactions by the first 80″, AUCs were also calculated for run data encompassing the first 160″ of each experiment to account for both the 80″ association data (red asterisks) and the first 80″ of dissociation data (marked by green line and asterisks).
(§4) The selectivity of another A20 analog (a 3×HCL salt form of compound BQPB4) in comparison to previously tested compound, A20-1, was tested as described in Example 27 above.
(§5) Further to the experiments listed above, a series of dose-response experiments were conducted to determine the IC50 of a selected A20 chemical (A20-1) on the kinetics of human EphrinB2 ligand ectodomain protein binding to its cognate human EphB1, EphB2, and EphB4 receptor ectodomain proteins. FIG. 74A-74C are representative sensorgrams showing the effect of 0, 0.1, 0.2, 0.4, 0.8, 1.6, and 3.2 μM, concentrations of the 2×HCl salt of A20-I along with a 10 μM max standard (also A20-1) on three different Ephrin-EphB interactions (e.g., EphB1 in FIG. 74A, EphB2 in FIG. 74B and EphB4 in FIG. 74C). […] Additional IC50 values were determined at specific timepoints, at 75″ into the association step and at 55″ into the dissociation step (135″).
(§6) All absolute and relative IC50 values are provided in the Table 6 below, where absolute are based off the full binding sensorgram traces, and relative are based off of the max control traces.
(§7) In another experiment, the % inhibition for various A20 analog chemicals against the three different EphrinB2-EphB protein interactions was determined. Specifically, the percent inhibition for immobilized human EphrinB2-Fc binding to 25 nM soluble human EphB1-His (FIG. 76A, enlarged in FIG. 76D), EphB2-His (FIG. 76B, enlarged in FIG. 76E), and EphB4-His (FIG. 76C, enlarged in FIG. 76F) with 3511-I, 8009-9255, QTM-Br, A19, A19-NO2, and IM (all at 3.2 μM) was determined.

EphrinB2-EphB1 = biological target: T3, EphrinB2-EphB1 (Homo sapiens, UniProt P54762); assay: Octet 80 sec association/500 sec dissociation, immobilized human EphrinB2-Fc binding to soluble human EphB1-His; conditions: immobilized human EphrinB2, 25 nM soluble human EphB1
T3 construct: soluble human EphB1-His, EphB2-His, and EphB4-His ectodomains; commercially available human EphrinB1-Fc (EB1), EphrinB2-Fc (EB2), and EphrinB3-Fc (EB3) ectodomain proteins; purchased
T3 sequence (P54762 18-540 limits assumed): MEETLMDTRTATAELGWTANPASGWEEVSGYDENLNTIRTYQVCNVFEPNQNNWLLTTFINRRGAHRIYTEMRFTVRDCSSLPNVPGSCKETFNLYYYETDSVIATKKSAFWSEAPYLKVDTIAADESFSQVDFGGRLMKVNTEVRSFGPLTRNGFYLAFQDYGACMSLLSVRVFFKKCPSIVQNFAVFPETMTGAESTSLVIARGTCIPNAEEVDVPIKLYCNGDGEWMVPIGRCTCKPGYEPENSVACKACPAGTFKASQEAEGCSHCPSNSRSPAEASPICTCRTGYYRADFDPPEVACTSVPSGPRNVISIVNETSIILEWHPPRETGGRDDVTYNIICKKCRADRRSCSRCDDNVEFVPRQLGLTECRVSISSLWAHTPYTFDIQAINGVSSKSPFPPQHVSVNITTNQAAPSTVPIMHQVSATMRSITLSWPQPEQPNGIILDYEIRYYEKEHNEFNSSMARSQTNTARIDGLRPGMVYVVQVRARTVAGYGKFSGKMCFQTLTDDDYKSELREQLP
Experimental: as §1, §2, §3, §4, §5, §6, §7

EphrinB2-EphB2 [2] = biological target: T1, EphrinB2-EphB2; assay: Octet 80 sec association/500 sec dissociation, immobilized human EphrinB2-Fc binding to soluble human EphB2-His; conditions: immobilized human EphrinB2, 25 nM soluble human EphB2; for EphB2 Inhibition Percent, Inhibition of Association ONLY: at 3.2 μM and 80 seconds; for EphB2 Inhibition Percent, Inhibition of Association-Dissociation: at 3.2 μM and 580 seconds
Experimental: as §1, §2, §3, §4, §5, §6, §7

[3] = Absolute AUC/IC50, Table A, EphrinB2-EphB2
[4] = Absolute Association IC50 (300 sec), Table A, EphrinB2-EphB2
[5] = Absolute Dissociation IC50 (450 sec), Table A, EphrinB2-EphB2
[6] = Relative AUC/IC50, Table A, EphrinB2-EphB2, compound 7: association only
[7] = Relative Association IC50 (300 sec), Table A, EphrinB2-EphB2
[8] = Relative Dissociation IC50 (450 sec), Table A, EphrinB2-EphB2
[9] = tetramerization inhibitor IC50 (relative), association step, surmountable tetramer

SMILES	IC50 (EphrinB2-EphB2 [1]; [3])	IC50 (EphrinB2-EphB2 [1]; [4])	IC50 (EphrinB2-EphB2 [1]; [5])	IC50 (EphrinB2-EphB2 [1]; [6])	IC50 (EphrinB2-EphB2 [1]; [7])	IC50 (EphrinB2-EphB2 [1]; [8])	IC50 (EphrinB2-EphB2 [1]; [9])	selectivity among EphrinB2-EphB1/B2/B4 (EphrinB2-EphB4)	tetramerization inhibitor activity (EphrinB2-EphB2 [1])	EphB1 Inhibition Percent, Inhibition of Association ONLY (EphrinB2-EphB1; at 3.2 μM and 80 seconds)	EphB1 Inhibition Percent, Inhibition of Association-Dissociation (EphrinB2-EphB1; at 3.2 μM and 580 seconds)	EphB2 Inhibition Percent, Inhibition of Association ONLY (EphrinB2-EphB2 [2])	EphB2 Inhibition Percent, Inhibition of Association-Dissociation (EphrinB2-EphB2 [2])	EphB4 Inhibition Percent, Inhibition of Association ONLY (EphrinB2-EphB4; at 3.2 μM and 80 seconds, immobilized human EphrinB2, 25 nM soluble human EphB4)	EphB4 Inhibition Percent, Inhibition of Association-Dissociation (EphrinB2-EphB4; at 3.2 μM and 580 seconds, immobilized human EphrinB2, 25 nM soluble human EphB4)	disruption of unsurmountable tetramer (EphrinB2-EphB2 [1]; 0.8-3.2 μM, listed as QPB-NO4)
O=C(Cc1ccccc1)Nc1ccc(N2CCN(Cc3cc(Br)c(O)c4ncccc34)CC2)cc1 [Compound 52, N-(4-(4-((7-bromo-8-hydroxyquinolin-5-yl)methyl)piperazin-1-yl)phenyl)-2-phenylacetamide]	> 3.2 µM	> 3.2 µM	> 3.2 µM	> 3.2 µM	3.31 µM	> 3.2 µM	> 3 µM	less action toward EphB4 and EphB2 but high specificity for EphB1								
Cc1ccc2c(CN3CCN(c4ccc(Br)cc4)CC3)ccc(O)c2n1 [Compound 60, 5-((4-(4-bromophenyl)piperazin-1-yl)methyl)-2-methylquinolin-8-ol]	> 3.2 µM	> 3.2 µM	> 3.2 µM	> 3.2 µM	> 3.2 µM	> 3.2 µM			appears to eliminate tetramerization inhibitor activity							
CC(=O)Nc1ccc(N2CCN(Cc3ccc(O)c4ncccc34)CC2)cc1 [Compound 50, N-(4-(4-((8-hydroxyquinolin-5-yl)methyl)piperazin-1-yl)phenyl)acetamide]	> 3.2 µM	> 3.2 µM	> 3.2 µM		2.77 µM	1.95 µM	> 3 µM									
COc1ccc(N2CCN(Cc3cc(Br)c(O)c4ncccc34)CC2)cc1 [Compound 73]	2.29 µM	2.51 µM	1.51 µM		1.2 µM	1.07 µM										
Oc1ccc(CN2CCN(Cc3ccc(Br)cc3)CC2)c2cccnc12 [Compound 43, 5-((4-(4-bromobenzyl)piperazin-1-ium-1-yl)methyl)-8-hydroxyquinolin-1-ium chloride]	3.09 µM and 3.24 µM	2.7 µM and 2.75 µM	2.82 µM and 3.01 µM	2.24 µM	1.95 µM	2.34 µM and 2.14 µM				19.9% and 33.5%	36.5% and 47.3%	37.8% and 62.3%	56.3% and 75.4%			
Oc1ccc(CN2CCOCC2)c2cccnc12 [Compound 2, 4-((8-hydroxyquinolin-1-ium-5-yl)methyl)morpholin-4-ium chloride]	> 6.4 µM	> 6.4 µM	> 6.4 µM	2.29 µM	2.09 µM	2.75 µM										
COc1ccccc1N1CCN(Cc2ccc(O)c3ncccc23)CC1 [Compound 69, 5-((4-(2-methoxyphenyl)piperazin-1-yl)methyl)quinolin-8-ol]	> 3.2 µM	> 3.2 µM	> 3.2 µM	2.01 µM	2.19 µM	1.7 µM		less action toward EphB4 and EphB2 but high specificity for EphB1				3.6% and 0%	19.2% and 15.5%	0*/0*%	2.2% and 0%	
Oc1ccc(CN2CCN(c3ccc(I)cc3)CC2)c2cccnc12 [Compound 31, 5-((4-(4-iodophenyl)piperazin-1-yl)methyl)quinolin-8-ol]									appeared less potent							
O=[N+]([O-])c1ccc(N2CCN(Cc3ccc(O)c4ncccc34)CC2)cc1 [Compound 37, 5-((4-(4-nitrophenyl)piperazin-1-yl)methyl)quinolin-8-ol]							~1.6 µM									slight ability to disrupt the unsurmountable tetramer; also recorded: able to inhibit a small amount of the EphrinB2-EphB2 unsurmountable tetramer
Oc1ccc(CN2CCN(c3ccccc3)CC2)c2cccnc12 [Compound 22, 5-((4-phenylpiperazin-1-yl)methyl)quinolin-8-ol]	> 3.2 µM	> 3.2 µM	> 3.2 µM		3 µM		~3 µM									
O=S1(=O)CCN(Cc2cc(I)c(O)c3ncccc23)CC1 [Compound 18, 4-((8-hydroxy-7-iodoquinolin-5-yl)methyl)thiomorpholine 1,1-dioxide]							~0.8 µM									

Reference: patent US20260374739A1, “SMALL MOLECULAR WEIGHT CHEMICAL COMPOUND TO ANTAGONIZE EPH-EPHRIN TETRAMERIZATION AND INHIBIT BIDIRECTIONAL SIGNALING” (THE BOARD OF REGENTS OF THE UNIVERSITY OF TEXAS SYSTEM, priority 2022, published 2026)
